Patent US3989714A, “3-Phenylhydroindoles” (priority 1974, dated 1976)
Values joined by “and” are separate entries in the source; they are usually repeats but may differ in a detail not shown here. Identical values can stand only once. Counter-ions that a name gives are not always drawn.

Key:
Rhinovirus 2 (HGP) [1] = experiment: Antiviral Activity, Solid Media (Herrmann modification of the Dulbecco technique), plaque suppression by disc, HeLa cells; format: cell-based; settings: Rhinovirus 2 HGP adsorbed, Day 5, 100 mcg disc, virus 66 PFU/ml (Example 4), 970 PFU/ml (Example 7)
Excerpt: (§1) Compounds of the present invention show antiviral activity in concentrations of 50 to 100 γ/ml when tested in liquid media using the procedure of Rightsel (Univ. of Mich. Med. Bull. 24:222-234 (1958)) and on solid media using the Herrmann modification of the Dulbecco Technique (Proc. Nat. Acad. Sci., Wash. 38:747-752 (1952); Proc. Soc. Exp. Bio., N.Y., 103: 625-628 (1960)).
(§2) The procedure for the Herrmann modification used is as follows:
(§3) TEST NAME: Antiviral Activity, Solid Media
(§4) PURPOSE: The determination of toxicity and antiviral activity
(§5) of experimental compounds in normal and cancer cell
(§6) lines as measured by plaque suppression in solid media.
(§7) MATERIALS: Cell Line - Cancer
(§8) HeLa - Human carcinoma of the cervix
(§9) Virus - Rhinovirus 2 (HGP)
Growth Medium - Basal Medium Eagle (BME) containing 10 %
fetal bovine serum, penicillin (100 units/ml)
and streptomycin (100 mcg/ml).
Trypsin - (1-300) 0.25 % trypsin in Ca-free and Mg-free
Hanks' balanced salt solution (BSS).
(1) Rhinovirus: A 1:1 mixture of BME and
Medium 199. Contains 2 % fetal bovine serum
(FBS); 30 mM MgCl2; 0.3 % Tris; 30 gamma/ml
diethylaminoethyl (DEAE) dextran and 1 %
Wash Fluid - Phosphate-buffered saline (PBS) containing
Discs - Sterile Schleicher and Schuell 1/4"
penicillin assay discs.
Plates - Falcon plastic 60 × 15 mm dishes. […]
(§10) measured across the entire diameter (including disc).
The number of plaques on titration plates are counted to […]

in vitro = format: cell-based, Human; settings: human, hela cells
Excerpt: as §1
(§11) More particularly the protocol for the Rightsel procedure used is as follows:
(§12) ANTIVIRAL ACTIVITY TUBE METHOD
(§13) PURPOSE: The determination of toxicity and antiviral activity of
(§14) experimental compounds in normal and cancer cell lines
(§15) in vitro in tubes with liquid culture media.
(§16) MATERIALS: Cell Lines - cancer
(§17) HeLa - Human Carcinoma of the Cervix
(§18) Roller bottles are seeded with approximately 10^7 cells
(§19) in […] growth medium and rotated at 0.5 rpm on
(§20) the Bellco roller apparatus at 37° C until the cell
(§21) Trypsinization - Cells are resuspended in growth medium
(§22) at a concentration of […] HeLa cells/ml.
(§23) cell suspensions are gassed with CO2 to a pH of 6.8.
(§24) Sterile plastic tubes are seeded with 1.0 ml of cell
(§25) suspension and incubated in a stationary position for
(§26) two days (until cell sheet is confluent).
(§27) The compound is dissolved in distilled water at a maximum
(§28) concentration of 500 gamma/ml. Where necessary, NaOH,
(§29) HCl or ethanol is used to dissolve the material. The
(§30) pH of the final solution is adjusted as closely as
(§31) possible to pH 7.2. This stock solution is then
(§32) diluted with medium to contain appropriate concentrations
(§33) for 1 hour. Cytotoxicity and control tubes are rolled
(§34) with just 0.1 ml of medium. After a 1 hour adsorption
(§35) RECORDING: HeLa cell cultures are read every day, starting on day 3
(§36) and readings are continued until culture controls have
(§37) shown a non-specific cytopathic effect (CPE) in about
(§38) 5-6 days. WI-38 cultures are read every other day,
(§39) Compound cytoxicity is recorded as 0 - 4+, depending
(§40) on the degree and nature of the CPE. Viral CPE is
(§41) the cell sheet showing virus growth. Four tubes are
(§42) used for each concentration of compound and for each
(§43) concentration of virus dilution, and the four CPE
(§44) ratings within each group are averaged.

HeLa [2] = experiment: in vitro; format: cell-based, Human
Excerpt: as §1, §11, §12, §13, §14, §15, §16, §17, §18, §19, §20, §21, §22, §23, §24, §25, §26, §27, §28, §29, §30, §31, §32, §33, §34, §35, §36, §37, §38, §39, §40, §41, §42, §43, §44

Rhinovirus 2 (HGP) [3] = experiment: Antiviral activity tube method (Rightsel procedure), liquid media, HeLa cells; format: cell-based; settings: for Antiviral: concentration at which active, Day 4: 20 TCID50 (Example 7)
Excerpt: as §1, §11, §12, §13, §14, §15, §16, §17, §9
Growth Medium - Basal Medium Eagle (BME) with Earle's
salts, containing 10 % fetal bovine serum,
penicillin (100 units/ml.) and
streptomycin (100 mcg./ml.)
Maintenance Medium - A 1:1 mixture of BME and Medium
199; contains 2 % fetal bovine serum.
Trypsin - (1-300) 0.25 % in Ca-free and Mg-free
Hanks' balanced salt solution (BSS)
Roller Bottles - Bellco
Tubes - Sterile 16 × 150 mm plastic screw top
as §18, §19, §20, §21, §22, §23, §24, §25, §26, §27, §28, §29, §30, §31, §32
The virus is thawed rapidly at 37° C and diluted
in maintenance medium - to 10-^8 for titration and to an
estimated 10 - 100 Tissue Culture Infectious Dose50
PROCEDURE: The growth medium is decanted from the cell sheet in the
Adsorbed virus system: 0.1 ml of virus dilution is added
to each of the tubes and the tubes are rolled at 33°
as §33, §34
period, 0.9 ml of the appropriate dilution of the test
compound is added to each of the tubes and the tubes
are returned to the roller apparatus.
Unadsorbed virus system: 0.1 ml of the diluted virus and
0.9 ml of the diluted test compound are added simultaneously
to a tube and the tubes rotated at 33° C.
as §35, §36, §37, §38
starting with day 3, for 10-14 days.
as §40
also recorded as 0 - 4+, depending on the percent of
as §41, §42, §43, §44
To be considered active, a specific concentration of a test
compound must average 2 or more points below that of the
virus control. Actual TCID50 of virus used is
by method of Reed and Muench.

HeLa [4] = experiment: Cytotoxicity, solid media (disc), zones of cytotoxicity; format: cell-based, Human; settings: Day 5, 100 mcg disc
Excerpt: as §1, §2, §3, §4, §5, §6, §7, §8, §18
in 250-300 ml of growth medium and rotated at 0.5 rpm on
as §20
Cells are removed from the glass surface with trypsin.
The cells are resuspended in medium to a concentration
of 2.0 × 10^5 /ml. Falcon plastic 60 × 15 mm
seeded with 5.0 ml of cell suspension and incubated for
48 hours at 37° C in Pyrex baking dishes sealed with
Water-soluble compounds are prepared in distilled water
with the aid of HCl or NaOH as necessary. Solutions
are Millipore filtered. Water insoluble compounds are
Sterile Schleicher and Schuell 1/4" penicillin assay […]
as §10

SMILES | Antiviral, disc (Rhinovirus 2 (HGP) [1]) | MCC at 120 h (in vitro) [µg/mL] | MNTC at 96 h (in vitro) [µg/mL] | toxic effect of undetermined origin, day 5 (HeLa [2]) | Antiviral: concentration at which active, Day 4 (Rhinovirus 2 (HGP) [3]; Tube, HeLa, Rhinovirus 2 HGP nonadsorbed, virus 31 TCID50 (Example 13), 100 TCID50 (Example 4), active = averages 2 or more points below virus control) | Antiviral: concentration at which active, Day 5 (Rhinovirus 2 (HGP) [3]; Tube, HeLa, Rhinovirus 2 HGP nonadsorbed, Day 5, 20 TCID50, active = averages 2 or more points below virus control) | antiviral activity in the liquid system on 4th and 5th days (Rhinovirus 2 (HGP) [3]; liquid system, both the 4th and 5th days of incubation) | Cytotoxicity, disc (HeLa [4]) | Antiviral, disc (Rhinovirus 2 (HGP) [1]; hydrochloride) | Cytotoxicity: concentration at which toxic, Day 5 (HeLa [2]) | toxic effect on the cells (HeLa [2]) | Antiviral: concentration at which active, Day 4 (Rhinovirus 2 (HGP) [3]; Tube, HeLa, Rhinovirus 2 HGP nonadsorbed, virus 31 TCID50 (Example 13), 100 TCID50 (Example 4), active = averages 2 or more points below virus control, hydrochloride) | Antiviral: concentration at which inactive, Day 5 (Rhinovirus 2 (HGP) [3]; Tube, HeLa, Rhinovirus 2 HGP nonadsorbed, Day 5, virus 31 TCID50 (Example 13), 100 TCID50 (Example 4)) [µg/mL] | antiviral activity after four days of incubation, liquid test (Rhinovirus 2 (HGP) [3]; liquid test, four days of incubation)
COc1ccc(C2CN(O)C3(C)CCCCC23)cc1OC (stereo not shown) [Example 7, 3-(3,4-Dimethoxyphenyl)hexahydro-1-hydroxy-7a-methyl-indoline] | inactive | 100 | 100 | very slight toxic effect | 100 µg/mL and 50 µg/mL | 100 µg/mL and 50 µg/mL | showed activity at two concentrations | Nontoxic |  |  |  |  |  | 
COc1ccc(C2CN(O)C3CCCCC23)cc1OC (stereo not shown) [Example 4, 3-(3,4-dimethoxyphenyl)hexahydro-1-hydroxyindoline hydrochloride] |  |  | 100 |  |  |  |  | Nontoxic | inactive | 100-12.5 | undetermined toxic effect on the cells was observed | 100 µg/mL and 50 µg/mL | 6.25 | 
COc1ccccc1C1C[N+]([O-])=C2CCCCC21.Cl (stereo not shown) [Example 13, 3,3a,4,5,6,7-hexahydro-3-(o-methoxyphenyl)-2H-indole 1-oxide hydrochloride] |  |  | 108 |  |  |  |  |  |  | 108-10.5 | undetermined toxic effect on the cells was observed |  |  | showed antiviral activity
